These results are taken from patent US11447504B2, “Macrocyclic chlorine substituted indole derivatives” (Bayer Aktiengesellschaft, priority 2017, dated 2022).

SMILES strings stand for the structures. Several values for one entry are separate records, joined by “and”; a condition that tells them apart may be missing. Equal entries are not always repeated. Structures can show the parent of a compound that is named as a salt. Where two headings read alike, the source gives them in different places. Where only a bound is given, the exact number is not on record here.

The target of one series is MCL-1 (Homo sapiens (Human), UniProt Q07820, K194A/K197A/R201A). Kind of series: Protein-protein interaction assay MCL-1/Noxa BH3 peptide (MCL-1 Assay, TR-FRET). Format: binding. As to conditions: read-out: MCL-1 Assay IC50 (median). The protocol:
The dose-dependent inhibition by the compounds described in this invention of the interaction between MCL-1 and the BH3 domain of Noxa (both human) was determined using a steady state binding competition assay with time-resolved fluorescence energy transfer (TR-FRET) readout. […] The MBP-MCL-1 was purchased from Beryllium (Bedford, Mass., USA). The expression and purification of this protein construct has been described elsewhere (DOI:10.1371/journal.pone.0125010). The Noxa BH3-derived peptide can be obtained from e.g. Biosyntan (Berlin, Germany).
For that, 100-fold concentrated DMSO solutions were prepared by serial dilutions (1:3.4) of a 2 mM stock solution in a clear, 384-well microtiter plate (Greiner Bio-One, Frickenhausen, Germany). From there, 50 nl were transferred in a dark test plate (Greiner Bio-One, Frickenhausen, Germany). […] This was followed by a 10-minute incubation step at 22° C. for pre-equilibration of the putative complex between MBP-MCL-1 and the compounds.
(§1) The mixture was incubated in the dark for one hour at 22° C. and then overnight at 4° C.
(§2) The resulting data (ratio) were normalized, taking 0% inhibition as the mean value of control measurements (usually 32 data points) where all reagents were included. In this case 50 nl DMSO were used instead of compounds. […] IC50 values were determined by regression analysis based on a 4 parameter equation (minimum, maximum, IC50, Hill; Y=Max+(Min−Max)/(1+(X/IC50)^Hill) using the Screener Software (Genedata).

The next series addresses BCL-XL (Homo sapiens (Human), UniProt Q07817). The series is described as follows: Protein-protein interaction assay BCL-XL/Bad BH3 peptide (BCL-XL Assay, TR-FRET). Format: binding. As to conditions: read-out: BCL-XL Assay IC50 (median). The protocol:
Assay 2 Protein-Protein Interaction Assay: BCL-XL/Bad BH3 Peptide (BCL-XL Assay)
The dose-dependent inhibition by the compounds described in this invention of the interaction between BCL-XL and the BH3 domain of Bad (both human) was determined using a steady state binding competition assay with time-resolved fluorescence energy transfer (TR-FRET) readout.
For that, 100-fold concentrated DMSO solutions were prepared by serial dilutions (1:3.4) of a 2 mM stock solution in a clear, 384-well microtiter plate (Greiner Bio-One, Frickenhausen, Germany). From there, 50 nl were transferred in a dark test plate (Greiner Bio-One, Frickenhausen, Germany). […] This was followed by a 10-minute incubation step at 22° C. for pre-equilibration of the putative complex between His-BCL-XL and the compounds.
The mixture was incubated in the dark for one hour at 22° C. and then overnight at 4° C. The formation of BCL-XL/Bad complexes was determined by measuring the resonance energy transfer of the anti-His- Eu-cryptate antibody to the streptavidin-XL665 present in the reaction.
as §2

The next series deals with BCL-2 (Homo sapiens (Human), UniProt P10415). The series is described as follows: Protein-protein interaction assay BCL-2/Bad BH3 peptide (BCL-2 Assay, TR-FRET). As to conditions: read-out: BCL-2 Assay IC50 (median). Format: binding. The protocol: The dose-dependent inhibition by the compounds described in this invention of the interaction between BCL-2 and the BH3 domain of Bad (both human) was determined using a steady state binding competition assay with time-resolved fluorescence energy transfer (TR-FRET) readout.
Chain of BCL-2 (P10415 other isoform, or with tags, fused parts or gaps): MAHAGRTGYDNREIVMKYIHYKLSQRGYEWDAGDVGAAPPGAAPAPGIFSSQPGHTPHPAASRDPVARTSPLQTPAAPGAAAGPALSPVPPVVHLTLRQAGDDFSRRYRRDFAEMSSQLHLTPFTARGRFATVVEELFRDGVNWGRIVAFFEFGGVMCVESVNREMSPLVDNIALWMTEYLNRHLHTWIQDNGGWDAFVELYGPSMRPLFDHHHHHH
For that, 100-fold concentrated DMSO solutions were prepared by serial dilutions (1:3.4) of a 2 mM stock solution in a clear, 384-well microtiter plate (Greiner Bio-One, Frickenhausen, Germany). From there, 50 nl were transferred in a dark test plate (Greiner Bio-One, Frickenhausen, Germany). […] This was followed by a 10-minute incubation step at 22° C. for pre-equilibration of the putative complex between His-BCL-2 and the compounds.
as §1, §2

Series [1] has as its system SUDHL5. Kind of series: Induction of caspase-3/7 activity (Assay 4), SUDHL5. Format: cell-based. As to conditions: SUDHL5 cells. In outline:
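DLBCL cells treated with compounds for 3 hours at 37° C. Caspase-3/7 activity measured by Caspase-Glo 3/7 luminescence, with medium-only background subtracted.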

The subject of series [2] is SUDHL10. Kind of series: Induction of caspase-3/7 activity (Assay 4), SUDHL10. Format: cell-based. As to conditions: SUDHL10 cells. In outline:
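SUDHL10 DLBCL cells treated with compounds for 3 hours at 37 °C in a humidified incubator. Caspase-3/7 activity read with Caspase-Glo 3/7 luminescent reagent. Medium-only background subtracted from all values.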

For series [3], the system named is SUDHL5. The series is described as follows: Antiproliferation assay 7, SUDHL5. As to conditions: SUDHL5 cells, CellTiter-Glo, read-out: Antiproli SUDHL5 IC50 (median). The class given is cell-based. In outline: (§3)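 Luminescent ATP-based viability (CellTiter-Glo) measured after 72 hours of compound treatment at 37° C, alongside a time-zero plate read on the day of plating.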

The subject of another series is MV-4-11. Kind of series: Antiproliferation assay 7, MV-4-11. The settings on record: Homo sapiens, MV4-11, 72 h, MV-4-11 cells, CellTiter-Glo, read-out: Antiproli MV-4-11 IC50 median. The class given is cell-based. In a few lines: as §3
Series [4] relates to SUDHL5. Kind of series: Induction of cytotoxicity (Assay 6), SUDHL5.
Description: (§4) Assay 6 Induction of Cytotoxicity Upon Treatment of Cells with Selected Compounds
(§5) Therefore, cytotoxicity assays were run in parallel in SUDHL5 and SUDHL10 cells.
(§6) The different cell lines were plated in culture medium (RPMI 1640 [GIBCO #22400-089]supplemented with 10% Fetal Bovine Serum) at a density of 3,300 cells in 30 μL/well in a sterile, solid black, flat bottom, polystyrene, TC-treated 384-well microplate (Corning #3571) using Multidrop Combi Reagent Dispenser. As a control, medium without cells was also added to the plate. Cells were incubated in a humidified incubator at 37° C. overnight. […] Rim wells were excluded. The cells were incubated for 5 hours in a humidified incubator at 37° C. After this incubation, 30 μL of CellTiter-Glo® Luminescent Cell Viability reagent (Promega, G7573) was added to each well using the Multidrop Combi Reagent Dispenser, followed by 15 minutes incubation on a shaker at room temperature. Finally, luminescence was read at 0.1 ms, with a gain of 3000 using the PHERAstar FS microplate reader (BMG Labtech).
The test system of series [5] is SUDHL10. The series is described as follows: Induction of cytotoxicity (Assay 6), SUDHL10.
Description: as §4, §5, §6
The test system of the next series is AMO-1. The series is described as follows: Antiproliferation assay 7, AMO-1. The class given is cell-based. The settings on record: AMO-1 cells, CellTiter-Glo, read-out: Antiproli AMO-1 IC50 median. In outline: as §3
A further series has as its system HMC-1-8. Kind of series: Antiproliferation assay 7, HMC-1-8. Format: cell-based. As to conditions: HMC-1-8 cells, CellTiter-Glo, read-out: Antiproli HMC-1-8 IC50 median. In a few lines:
as §3

A further series has as its system SK-BR-3. Kind of series: Antiproliferation assay 7, SK-BR-3. Format: cell-based. As to conditions: Homo sapiens; SK-BR-3 cells, 72 hours, CellTiter-Glo; read-out: Antiproli SK-BR-3 IC50 median. The protocol: Assessment of the Anti-Proliferative Effect of Compounds in Different Cell Lines
The impact of compounds on the proliferation of different cell lines was assessed using the CellTiter-Glo® Luminescent Cell Viability reagent from Promega (G7573).
In parallel, cells were plated in a reference (day 0) plate for time zero determination.
Rim wells were excluded. The cells were incubated for 72 hours in a humidified incubator at 37° C. The day 0 plate was measured by adding 30 μL/well of CTG solution (CellTiter-Glo® Luminescent Cell Viability reagent, Promega G7573) to time zero wells in the reference plate followed by a 10 minutes incubation and luminescence reading at 0.1 ms. using the PHERAstar FS microplate reader (BMG Labtech).
After 72 hours incubation, the treated plates were measured in the same way as the day 0 plate mentioned above.

Where [6] appears, read: Homo sapiens, SU-DHL-5, 3 h, Caspase-Glo 3/7, read-out: Caspase SUDHL5 EC50 (median).
Setting [7] is: Homo sapiens, SU-DHL10, 3 h, Caspase-Glo 3/7, read-out: Caspase SUDHL10 EC50 (median).
[8] abbreviates: Homo sapiens, SU-DHL-5, 5 h, read-out: Cytotox SUDHL5 IC50 (median), SUDHL5 cells, 5 hours, CellTiter-Glo.
Where [9] appears, read: Homo sapiens, SU-DHL10, 5 h, read-out: Cytotox SUDHL10 IC50 (median), SUDHL10 cells, 5 hours, CellTiter-Glo.
The mark [10] stands for this setting: 3 hours, Caspase-Glo 3/7, read-out: Caspase SUDHL5 EC50 (median).
[11] abbreviates: 3 hours, Caspase-Glo 3/7, read-out: Caspase SUDHL10 EC50 (median).
[12] abbreviates: read-out: Cytotox SUDHL5 IC50 (median), SUDHL5 cells, 5 hours, CellTiter-Glo.
Where [13] appears, read: read-out: Cytotox SUDHL10 IC50 (median), SUDHL10 cells, 5 hours, CellTiter-Glo.

Chain of BCL-XL (Q07817 other isoform, or with tags, fused parts or gaps): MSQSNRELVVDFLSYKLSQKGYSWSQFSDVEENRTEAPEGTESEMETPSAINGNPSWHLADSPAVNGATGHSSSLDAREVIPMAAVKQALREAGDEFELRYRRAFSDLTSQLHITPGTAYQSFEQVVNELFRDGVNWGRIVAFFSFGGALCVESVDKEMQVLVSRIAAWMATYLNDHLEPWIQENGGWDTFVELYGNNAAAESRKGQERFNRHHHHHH
Chain of MCL-1 (Q07820 whole entry K194A/K197A/R201A, looked up, the tested form may be a part): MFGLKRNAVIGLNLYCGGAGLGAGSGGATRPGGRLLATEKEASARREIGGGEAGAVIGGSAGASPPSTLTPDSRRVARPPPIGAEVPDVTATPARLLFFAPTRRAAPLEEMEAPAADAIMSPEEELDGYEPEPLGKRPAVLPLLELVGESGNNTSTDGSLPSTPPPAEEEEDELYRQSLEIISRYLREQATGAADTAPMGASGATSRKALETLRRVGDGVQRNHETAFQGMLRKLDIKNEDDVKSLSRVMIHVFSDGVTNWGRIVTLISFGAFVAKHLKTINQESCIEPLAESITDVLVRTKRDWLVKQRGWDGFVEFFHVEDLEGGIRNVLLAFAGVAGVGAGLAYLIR

Take `CCc1c2c(nn1C)COC/C=C\Cn1c(C(=O)O)c(CCCOc3cccc4ccccc34)c3ccc(Cl)c-2c31` (racemic) [Example 18, (rac)-(11 Z)-4-chloro-3-ethyl-2-methyl-7-[3-(naphthalen-1-yloxy)propyl]-2,10,13,15-tetrahydropyrazolo[4′,3′:9,10][1,6]oxazacycloundecino[8,7,6-hi]indole-8-carboxylic Acid]: the IC50 at MCL-1 is 1.3 nM; at BCL-XL, more than 20000 nM; at BCL-2, > 20000 nM and 18700 nM and 20200 nM; in the series with SUDHL5 [3] (Homo sapiens, SU-DHL-5, 72 h), 1400 nM; in the series with MV-4-11 it was 4710 nM; in the series with SUDHL5 [4] (setting [8]), 1200 nM. For the same compound, the IC50 in the series on SUDHL10 [5] (setting [9]) is 1300 nM. In addition, the EC50 in the series with SUDHL5 [1] (setting [6]) amounted to 1100 nM; with SUDHL10 [2] (setting [7]), 1300 nM.
Regarding `CCc1c2c(nn1C)N(C)CCCCCn1c(C(=O)O)c(CCCOc3cccc4cc(F)ccc34)c3ccc(Cl)c-2c31` (racemic) [Example 77, (rac)-4-chloro-3-ethyl-7-{3-[(6-fluoronaphthalen-1-yl)oxy]propyl}-2,15-dimethyl-10,11,12,13,14,15-hexahydro-2H-pyrazolo[4′,3′:4,5][1,6]diazacycloundecino[3,2,1-hi]indole-8-carboxylic Acid], the IC50 is 1.1 nM on MCL-1; more than 20000 nM on BCL-XL; 17000 nM at BCL-2; 970 nM in the series on SUDHL5 [3] (Homo sapiens, SU-DHL-5, 72 h); 530 nM in the series with AMO-1 (Homo sapiens, AMO1, 72 h); 3300 nM with HMC-1-8 (72 h). Moreover, the IC50 came to 450 nM in the series on SUDHL5 [4] (setting [8]) and 870 nM with SUDHL10 [5] (setting [9]). Also, the EC50 with SUDHL5 [1] (setting [6]) stood at 480 nM; in the series with SUDHL10 [2] (setting [7]) it was 490 nM.
For the compound `Cc1c2c(nn1C)N(C)CCCCCn1c(C(=O)O)c(CCCOc3cccc4ccccc34)c3ccc(Cl)c-2c31` (single isomer, unassigned) [Example 73, (−)-4-chloro-2,3,15-trimethyl-7-{3-[(naphthalen-1-yl)oxy]propyl}-10,11,12,13,14,15-hexahydro-2H-pyrazolo[4′,3′:4,5][1,6]diazacycloundecino[3,2,1-hi]indole-8-carboxylic acid], the IC50 on MCL-1 is 16 nM; on BCL-XL, more than 20000 nM; at BCL-2 it was more than 20000 nM; in the series on AMO-1 (72 hours), 18000 nM; in the series with HMC-1-8 (72 hours), 24000 nM; with SUDHL5 [4] (setting [12]), 14000 nM. Also, in the series with SUDHL10 [5] (setting [13]), the IC50 worked out at 26000 nM. The EC50 with SUDHL5 [1] (setting [10]) was found to be 15000 nM; in the series on SUDHL10 [2] (setting [11]), 18000 nM.
As to `Cc1c2c(nn1C)N(C)CCCCCn1c(C(=O)O)c(CCCOc3cccc4cc(F)ccc34)c3ccc(Cl)c-2c31` [Example 76, (−)-4-chloro-7-{3-[(6-fluoronaphthalen-1-yl)oxy]propyl}-2,3,15-trimethyl-10,11,12,13,14,15-hexahydro-2H-pyrazolo[4′,3′:4,5][1,6]diazacycloundecino[3,2,1-hi]indole-8-carboxylic acid-N-ethylethanamine salt], the IC50 was more than 20000 nM on BCL-XL; more than 20000 nM at BCL-2; 4600 nM in the series with SUDHL5 [3] (72 hours); 8600 nM with AMO-1 (72 hours); 13000 nM in the series with HMC-1-8 (72 hours); 3000 nM with SUDHL5 [4] (setting [12]). In addition, in the series on SUDHL10 [5] (setting [13]), the IC50 was 7000 nM. Further, the figures for the EC50 with SUDHL5 [1] (setting [10]) and in the series with SUDHL10 [2] (setting [11]) were 3200 nM and 6100 nM, respectively.
In the case of `CCc1c2c(nn1C)CN(C)CCCCn1c(C(=O)O)c(CCCOc3cccc4ccccc34)c3ccc(Cl)c-2c31` (racemic) [Example 22, (rac)-4-chloro-3-ethyl-2,14-dimethyl-7-[3-(naphthalen-1-yloxy)propyl]-10,11,12,13,14,15-hexahydro-2H-pyrazolo[3′,4′:8,9][1,6]diazacycloundecino[10,11,1-hi]indole-8-carboxylic Acid], the EC50 came out at 140 nM in the series on SUDHL5 [1] (setting [6]) and 270 nM in the series with SUDHL10 [2] (setting [7]). Also, the IC50 in the series with SUDHL5 [3] (Homo sapiens, SU-DHL-5, 72 h) came to 280 nM; in the series with MV-4-11 it was 692 nM; in the series on AMO-1 (Homo sapiens, AMO1, 72 h) it was 659 nM; in the series on SK-BR-3, 894 nM; in the series with SUDHL5 [4] (setting [8]), 160 nM; with SUDHL10 [5] (setting [9]) it was 400 nM.
For the compound `CCc1c2c(nn1C)COCCCCn1c(C(=O)O)c(CCCOc3cccc4ccccc34)c3ccc(Cl)c-2c31` (racemic) [Example 19, (rac)-4-chloro-3-ethyl-2-methyl-7-[3-(naphthalen-1-yloxy)propyl]-2,10,11,12,13,15-hexahydropyrazolo[4′,3′:9,10][1,6]oxazacycloundecino[8,7,6-hi]indole-8-carboxylic Acid], the EC50 was 340 nM with SUDHL5 [1] (setting [6]) and 320 nM in the series with SUDHL10 [2] (setting [7]). Also, the IC50 is 570 nM in the series on SUDHL5 [3] (Homo sapiens, SU-DHL-5, 72 h); 1650 nM in the series with MV-4-11; 3260 nM with SK-BR-3; 480 nM in the series with SUDHL5 [4] (setting [8]); 440 nM in the series on SUDHL10 [5] (setting [9]).
